Measured values published in PMC5108032, “Discovery of a Quinoline-4-carboxamide Derivative with a Novel Mechanism of Action, Multistage Antimalarial Activity, and Potent in Vivo Efficacy” (Journal of Medicinal Chemistry, 2016).

Test: Plasma protein binding (equilibrium dialysis)
Format: in vitro ADME
Details: female, NMRI; mouse plasma protein binding; read-out: PPB (converted)
Experimental: by the addition of excess NADPH (8 mg/mL 50 mM potassium phosphate buffer, pH 7.4).
Immediately, at time zero, then at 3, 6, 9, 15 and 30 min an aliquot (50 μL) of the incubation mixture was removed and mixed with acetonitrile (100 μL) to stop the reaction. Internal standard was added to all samples, the samples centrifuged to sediment precipitated protein and the plates then sealed prior to UPLC-MS/MS analysis using a Quattro Premier XE (Waters Corporation, USA).
XLfit (IDBS, UK) was used to calculate the exponential decay and consequently the rate constant (k) from the ratio of peak area of test compound to internal standard at each timepoint. The rate of intrinsic clearance (CLi) of each test compound was then calculated using the following calculation:
CLi (mL/min/g liver) = k x V x Microsomal protein yield
Where V (mL/mg protein) is the incubation volume/mg protein added and microsomal protein yield is taken as 52.5 mg protein per g liver. Verapamil (0.5 µM) was used as a positive control to confirm acceptable assay performance. Experiments were performed using a single time-course experiment.
Plasma Protein Binding (PPB) experiments
This was based on a previously described method, with the exception that NMRI mouse plasma was used here.8 In brief, a 96 well equilibrium dialysis apparatus was used to determine the free fraction in plasma for each compound (HT Dialysis LLC, Gales Ferry, CT). Membranes (12-14 kDA cut-off) were conditioned in deionised water for 60 min, followed by conditioning in 80:20 deionised water:ethanol for 20 min, and then rinsed in isotonic buffer before use. Female CD1 mouse plasma was removed from the freezer and allowed to thaw on the day of experiment. Thawed plasma was then centrifuged (Allegra X12-R, Beckman Coulter, USA), spiked with test compound (final concentration 10 μg/mL), and 150 μL aliquots (n=6 replicate determinations) loaded into the 96-well equilibrium dialysis plate. Dialysis against isotonic buffer (150 µL) was carried out for 5 h in a temperature controlled incubator at ~37 °C (Barworld scientific Ltd, UK) using an orbital microplate shaker at 100 revolutions/minute (Barworld Scientific Ltd, UK). At the end of the incubation period, 50 μL aliquots of plasma or buffer were transferred to micronic tubes (Micronic B.V., the Netherlands) and the composition in each tube balanced with control fluid (50 μL), such that the volume of buffer to plasma is the same. Sample extraction was performed by the addition of 200 µL of acetonitrile containing an appropriate internal standard. Samples were allowed to mix for 1 min and then centrifuged at 3000 rpm in 96-well blocks for 15 min (Allegra X12-R, Beckman Coulter, USA) after which 150 μL of supernatant was removed to 50 μL of water. All samples were analysed by UPLC-MS/MS on a Quattro Premier XE Mass Spectrometer (Waters Corporation, USA). The unbound fraction was determined as the ratio of the peak area in buffer to that in plasma. Experiments […]
Parallel Artificial Membrane Permeability Assay (PAMPA)
PAMPA was performed using a 96-well pre-coated BD Gentest™ PAMPA plate (BD Biosciences, U.K.). Each well was divided into two chambers; donor and acceptor, separated by a lipid-oil-lipid tri-layer constructed in a porous filter. The effective permeability, Pe, of the compound was measured at pH 7.4. Stock solutions (5 mM) of the compound were prepared in DMSO. The compound was then further diluted to 10 µM in phosphate buffered saline at pH 7.4. […]

| fraction unbound at 5 h, 10 μg/mL | Compound |
| --- | --- |
| 0.23 | O=C(NCCN1CCCC1)c1cc(NCCC2CCOCC2)nc2ccc(Cl)cc12 [Compound 30, 6-Chloro-N-(2-(pyrrolidin-1-yl)ethyl)-2-((2-(tetrahydro-2H-pyran-4-yl)ethyl)amino)quinoline-4-carboxamide] |
| 0.25 | O=C(NCCN1CCCC1)c1cc(-c2ccc(S(=O)(=O)N3CCOCC3)cc2)nc2ccc(F)cc12 [Compound 38, 6-Fluoro-2-(4-(morpholinosulfonyl)phenyl)-N-(2-(pyrrolidin-1-yl)ethyl)quinoline-4-carboxamide] |
| 0.44 | O=C(NCCN1CCCC1)c1cc(-c2ccc(CN3CCOCC3)cc2Cl)nc2ccc(F)cc12 [Compound 42, 2-(2-Chloro-4-(morpholinomethyl)phenyl)-6-fluoro-N-(2-(pyrrolidin-1-yl)ethyl)quinoline-4-carboxamide] |

| Compound | fraction unbound at 5 h, 10 μg/mL |
| --- | --- |
| O=C(NCCN1CCCC1)c1cc(NCCCN2CCOCC2)nc2ccc(F)cc12 [Compound 25, 6-Fluoro-2-((3-morpholinopropyl)amino)-N-(2-(pyrrolidin-1-yl)ethyl)quinoline-4-carboxamide] | 0.41 |
| O=C(NCCN1CCCC1)c1cc(NCCCCN2CCOCC2)nc2ccc(Cl)cc12 [Compound 27, 6-Chloro-2-((4-morpholinobutyl)amino)-N-(2-(pyrrolidin-1-yl)ethyl)quinoline-4-carboxamide] | 0.51 |
